The values that follow are results of earlier work, collected in patent US10010502B2, “Device that delivers a sustained low-dose of a myopia-suppressing drug, while preserving pupillary function and accommodation” (AMORPHEX THERAPEUTICS LLC, priority 2015, dated 2018).

“Also recorded” adds a separate entry of the source.

The test system of data set [1] is childhood myopia. The settings on record: 68 myopic children, oral dose of 400 mg.
The subject of data set [2] is myopia progression.
Data set [3] deals with myopia progression. The source holds these as a separate data set.
Data set [4] concerns muscarinic receptors of the pupil and ciliary body.

`Cn1cnc2[nH]c(=O)[nH]c(=O)c21` [7-methylxanthine]: in data set [1], the “eye elongation and myopia progression” value is “reduce eye elongation and myopia progression”; the “safety / adverse effects” value is “safe and without side effects; also recorded: no reported adverse effects”.

Regarding `CN1CCc2cccc3c2[C@H]1Cc1ccc(O)c(O)c1-3` [apomorphine], the “myopia progression in animal models” value in data set [2] was “retard myopia progression”.

For `CN1[C@@H]2CC[C@H]1C[C@@H](OC(=O)C(CO)c1ccccc1)C2` (some centres unmarked) [atropine], in data set [3] (0.01% drops), the glare symptoms result is recorded as “some mild glare symptoms” and the “visual acuity, quality of life, reading speed” value was “no decrease in visual acuity, quality of life or reading speed”. Further, the myopia progression in data set [3] (eye drop concentrations of 0.5% and 1.0%) is ≤ 0.2 diopters/year. The “increase in pupil size easily tolerated by children” value in data set [3] (lower dose atropine drops, normal light conditions) is reported as 1 mm. The “effect on myopia progression” value in data set [3] (lowest dose eye drops studied, 0.01%) is given as “less-than-optimal but measureable effect”. For the same molecule, the “duration of dilation after one drop” value in data set [3] (one eye drop) is on record as “several days or even a week or more”.

For `N[C@@H](Cc1ccc(O)c(O)c1)C(=O)O` [levodopa], in data set [2], the “myopia progression in animal models” value is reported as “retard myopia progression”.

As for `CN1CCN(CC(=O)N2c3ccccc3C(=O)Nc3cccnc32)CC1` [pirenzepine], in data set [4], the “activity at muscarinic receptors of the pupil and ciliary body relative to atropine” value is “less active at the muscarinic receptors of the pupil and ciliary body than atropine”.
